According to US11090304B2 (Amgen Inc., priority 2018, dated 2021):
Read-outs that look alike come from different tables or passages of the source.

Assays:
[1] = system: Phosphorylation of ERK1/2 in MIA PaCa-2 cells; assay: Phospho-ERK1/2 MSD assay in MIA PaCa-2 cells; assay type: cell-based; conditions: read-out: p-ERK IC50 (2 h; MIA PaCa-2), 2 h compound treatment
How it was run: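 MSD electrochemiluminescence readout of phospho-ERK1/2 in whole-cell lysates, IC50 by 4-parameter logistic fit. Compound titrations were applied for 2 or 4 h at 37 °C, 5% CO2, followed by 10 ng/mL EGF stimulation for 10 min before lysis.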

[2] = target: GDP-bound KRAS protein (aa 1-169), containing both G12C and C118A amino acid substitutions (Homo sapiens, UniProt P01116, C118A/G12C); assay: Coupled nucleotide exchange assay (SOS-mediated, AlphaScreen); assay type: biochemical; conditions: 5 min compound pre-incubation
Sequence of GDP-bound KRAS protein (aa 1-169), containing both G12C and C118A amino acid substitutions (P01116 1-169 isoform P01116-2 G12C/C118A): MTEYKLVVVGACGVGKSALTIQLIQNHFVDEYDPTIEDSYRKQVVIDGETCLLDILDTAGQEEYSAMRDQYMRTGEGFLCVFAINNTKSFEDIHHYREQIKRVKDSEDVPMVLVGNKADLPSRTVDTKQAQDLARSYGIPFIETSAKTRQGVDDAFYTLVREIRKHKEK

Compound	IC50 ([1]; Homo sapiens, MIA PaCa-2, 2 h)	Coupled exchange IC50 (5 min) [2]	IC50 [1]
C=CC(=O)N1CCN(c2nc(=O)n(-c3cncnc3C(C)(C)C)c3nc(-c4ccccc4F)c(Cl)cc23)[C@@H](C)C1 (single isomer, unassigned) [Example 54-110-2]	119 nM	0.194 | nda μM	–
C=CC(=O)N1CCN(c2nc(=O)n(-c3cccnc3C(C)(C)C)c3nc(-c4ccccc4F)c(Cl)cc23)[C@@H](C)C1 (single isomer, unassigned) [Example 54-112-1]	125 nM	0.075 | nda μM	–
C=CC(=O)N1CCN(c2nc(=O)n(-c3c(C)nc(C)nc3C(C)C)c3nc(-c4c(O)cccc4F)c(Cl)cc23)[C@@H](C)C1 (single isomer, unassigned) [Example 55-4-1]	37 nM	0.023 | nda μM	–
C=CC(=O)N1CCN(c2nc(=O)n(-c3c(C)ccnc3N(C)C)c3nc(-c4ccccc4F)c(Cl)cc23)[C@@H](C)C1 (single isomer, unassigned) [Example 55-7-2]	587 nM	0.325 | nda μM	–
C=CC(=O)N1CCN(c2nc(=O)n(-c3c(C)cccc3CC)c3nc(-c4ccccc4F)c(Cl)cc23)[C@@H](C)C1 (single isomer, unassigned) [Example 55-9-1]	–	0.804 | nda μM	1350 nM
C=CC(=O)N1CCN(c2nc(=O)n(-c3c(C)cccc3CC)c3nc(-c4ccccc4F)c(Cl)cc23)[C@@H](C)C1 (single isomer, unassigned) [Example 55-9-2]	–	0.158 | nda μM	298 nM
C=CC(=O)N1CCN(c2nc(=O)n(-c3c(C)ccnc3CC)c3nc(-c4c(O)cccc4F)c(Cl)cc23)[C@@H](C)C1 (single isomer, unassigned) [Example 55-10-1]	–	0.065 | nda μM	82 nM
C=CC(=O)N1CCN(c2nc(=O)n(-c3c(C)ccnc3CC)c3nc(-c4c(O)cccc4F)c(Cl)cc23)[C@@H](C)C1 (single isomer, unassigned) [Example 55-10-2]	–	0.266 | nda μM	344 nM
C=CC(=O)N1CCN(c2nc(=O)n(-c3c(C)cccc3C3CC3)c3nc(-c4c(O)cccc4F)c(Cl)cc23)[C@@H](C)C1 (single isomer, unassigned) [Example 55-15-1]	–	0.169 | nda μM	206 nM
C=CC(=O)N1CCN(c2nc(=O)n(-c3c(C)cccc3C3CC3)c3nc(-c4c(O)cccc4F)c(Cl)cc23)[C@@H](C)C1 (single isomer, unassigned) [Example 55-15-2]	–	0.061 | nda μM	76 nM
C=CC(=O)N1CCN(c2nc(=O)n(-c3c(O)cccc3C(C)C)c3nc(-c4ccccc4F)c(Cl)cc23)[C@@H](C)C1 (single isomer, unassigned) [Example 55-26-2]	124 nM	0.031 | nda μM	–
C=CC(=O)N1CCN(c2nc(=O)n(-c3c(C)cnn3C(C)(C)C)c3nc(-c4ccccc4F)c(Cl)cc23)[C@@H](C)C1 (single isomer, unassigned) [Example 55-38-2]	108 nM	0.133 | nda μM	–
C=CC(=O)N1CCN(c2nc(=O)n(-c3c(C)ncnc3C(C)C)c3nc(-c4cc(F)ccc4F)c(Cl)cc23)[C@@H](C)C1 (single isomer, unassigned) [Example 55-39-2]	111 nM	0.121 | nda μM	–
C=CC(=O)N1CCN(c2nc(=O)n(-c3c(C)ncnc3C(C)C)c3nc(-c4cc(C)ccc4F)c(Cl)cc23)[C@@H](C)C1 (single isomer, unassigned) [Example 55-40-2]	81 nM	0.078 | nda μM	–
C=CC(=O)N1CCN(c2nc(=O)n(-c3c(CO)cccc3C(C)C)c3nc(-c4ccccc4F)c(Cl)cc23)[C@@H](C)C1 (single isomer, unassigned) [Example 55-43-2]	32 nM	0.022 | nda μM	–
C=CC(=O)N1CCN(c2nc(=O)n(-c3ccccc3S(F)(F)(F)(F)F)c3nc(-c4c(O)cccc4F)c(Cl)cc23)[C@@H](C)C1 (single isomer, unassigned) [Example 56-1-2]	145 nM	0.068 | nda μM	–
C=CC(=O)N1CCN(c2nc(=O)n(-c3c(C)cccc3C3CC3)c3nc(-c4ccccc4F)c(Cl)cc23)[C@@H](C)C1 (single isomer, unassigned) [Example 56-5-1]	–	0.154 | nda μM	188 nM
C=CC(=O)N1CCN(c2nc(=O)n(-c3c(C)cccc3C3CC3)c3nc(-c4ccccc4F)c(Cl)cc23)[C@@H](C)C1 (single isomer, unassigned) [Example 56-5-2]	–	0.668 | nda μM	823 nM
C=CC(=O)N1CCN(c2nc(=O)n(-c3ccccc3C(C)C)c3nc(-c4cc(N)ccc4Cl)c(Cl)cc23)[C@@H](C)C1 (single isomer, unassigned) [Example 56-7-1]	–	0.079 | nda μM	29 nM
C=CC(=O)N1CCN(c2nc(=O)n(-c3ccccc3C(C)C)c3nc(-c4cc(N)ccc4Cl)c(Cl)cc23)[C@@H](C)C1 (single isomer, unassigned) [Example 56-7-2]	–	0.676 | nda μM	134 nM
C=CC(=O)N1CCN(c2nc(=O)n(-c3c(C)ccnc3CC)c3nc(-c4c(O)cccc4F)c(F)cc23)[C@@H](C)C1 (single isomer, unassigned) [Example 57-1-1]	630 nM	0.524 | nda μM	–
C=CC(=O)N1CCN(c2nc(=O)n(-c3ccccc3C(C)C)c3nc(-c4c(O)cccc4F)c(F)cc23)[C@@H](C)C1 (single isomer, unassigned) [Example 57-6-1]	–	3.163 | nda μM	2090 nM
C=CC(=O)N1CCN(c2nc(=O)n(-c3ccccc3C(C)C)c3nc(-c4ccccc4Cl)c(F)cc23)[C@@H](C)C1 (single isomer, unassigned) [Example 57-8-2]	166 nM	0.514 | nda μM	–

The remaining lines, values ahead:

IC50 ([1]; Homo sapiens, MIA PaCa-2, 2 h)	Coupled exchange IC50 (5 min) [2]	IC50 [1]	Compound
348 nM	0.288 | nda μM	–	C=CC(=O)N1CCN(c2nc(=O)n(-c3c(C)cccc3CC)c3nc(-c4c(O)cccc4F)c(F)cc23)[C@@H](C)C1 (single isomer, unassigned) [Example 57-14-1]
–	0.089 | nda μM	104 nM	C=CC(=O)N1CCN(c2nc(=O)n(-c3c(Cl)cccc3C(C)C)c3nc(-c4c(O)cccc4F)c(F)cc23)[C@@H](C)C1 (single isomer, unassigned) [Example 57-15-1]
–	0.841 | nda μM	984 nM	C=CC(=O)N1CCN(c2nc(=O)n(-c3c(Cl)cccc3C(C)C)c3nc(-c4c(O)cccc4F)c(F)cc23)[C@@H](C)C1 (single isomer, unassigned) [Example 57-15-2]
300 nM	0.316 | nda μM	–	C=CC(=O)N1CCN(c2nc(=O)n(-c3c(C)cccc3C(C)(C)C)c3nc(-c4c(O)cccc4F)c(F)cc23)[C@@H](C)C1 (single isomer, unassigned) [Example 57-17-1]
570 nM	0.572 | nda μM	–	C=CC(=O)N1CCN(c2nc(=O)n(-c3ccccc3C(C)(C)C)c3nc(-c4c(O)cccc4F)c(F)cc23)[C@@H](C)C1 (single isomer, unassigned) [Example 58-1-2]
–	0.097 | nda μM	144 nM	C=CC(=O)N1CCN(c2nc(=O)n(-c3c(C(F)(F)F)ccnc3C(C)C)c3nc(-c4c(O)cccc4F)c(F)cc23)[C@@H](C)C1 (single isomer, unassigned) [Example 58-3-1]
–	0.485 | nda μM	867 nM	C=CC(=O)N1CCN(c2nc(=O)n(-c3c(C(F)(F)F)ccnc3C(C)C)c3nc(-c4c(O)cccc4F)c(F)cc23)[C@@H](C)C1 (single isomer, unassigned) [Example 58-3-2]
114 nM	0.212 | nda μM	–	C=CC(=O)N1CCN(c2nc(=O)n(-c3c(C)ccnc3C(C)C)c3nc(-c4ccccc4F)c(F)cc23)[C@@H](C)C1 (single isomer, unassigned) [Example 58-4-1]
743 nM	0.216 | nda μM	–	C=CC(=O)N1CCN(c2nc(=O)n(-c3c(C)ccnc3C(C)C)c3nc(-c4cc(O)ccc4F)c(F)cc23)[C@@H](C)C1 (single isomer, unassigned) [Example 58-5-2]
367 nM	0.236 | nda μM	–	C=CC(=O)N1CCN(c2nc(=O)n(-c3c(C)ccnc3C(C)C)c3nc(-c4cc(N)ccc4F)c(F)cc23)[C@@H](C)C1 (single isomer, unassigned) [Example 58-6-2]
–	0.335 | nda μM	1840 nM	C=CC(=O)N1CCN(c2nc(=O)n(-c3c(C)ccnc3C(C)C)c3nc(-c4cc(O)cc(Cl)c4Cl)c(F)cc23)[C@@H](C)C1 (single isomer, unassigned) [Example 58-7-1]
–	0.041 | nda μM	515 nM	C=CC(=O)N1CCN(c2nc(=O)n(-c3c(C)ccnc3C(C)C)c3nc(-c4cc(O)cc(Cl)c4Cl)c(F)cc23)[C@@H](C)C1 (single isomer, unassigned) [Example 58-7-2]
180 nM	0.213 | nda μM	–	C=CC(=O)N1CCN(c2nc(=O)n(-c3c(C)ccnc3C(C)C)c3nc(-c4cc(N)ccc4Cl)c(F)cc23)[C@@H](C)C1 (single isomer, unassigned) [Example 58-8-1]
–	0.046 | nda μM	47 nM	C=CC(=O)N1CCN(c2nc(=O)n(-c3c(C)ccnc3C(C)C)c3nc(-c4c(O)cccc4Cl)c(F)cc23)[C@@H](C)C1 (single isomer, unassigned) [Example 58-9-1]
